Reference: patent US10167270B2, “Substituted quinazoline compounds and uses thereof for modulating glucocerebrosidase activity” (Northwestern University, priority 2015, dated 2019)
“Also recorded” adds a separate entry of the source. Like-named read-outs stand apart in the source and are kept apart here.

What was measured:
[1] = molecular target: acid α-glucosidase (GAA) (Homo sapiens (Human), UniProt P10253); experiment: Enzyme selectivity assay, acid α-glucosidase; assay type: biochemical; details: up to 100 μM
Text: (§1) Louis, Mo.). The recombinant wild-type GCase enzyme velaglucerase alfa ([…] Human Genetic Therapies, Inc.), acid α-glucosidase enzyme alglucosidase alfa (Lumizyme®, Genzyme Corporation), α-galactosidase A enzyme agalsidase beta (Fabrazyme®, Genzyme Corporation) were used in activity assays. […] The acid α-glucosidase and α-galactosidase A enzyme activity assay methods were similar to the GCase enzyme activity assay above with slight modifications.

[2] = molecular target: α-galactosidase A (GLA) (Homo sapiens (Human), UniProt P06280); experiment: Enzyme selectivity assay, α-galactosidase A; assay type: biochemical; details: up to 100 μM
Text: as §1

[3] = molecular target: T1, wild-type GCase (Homo sapiens (Human), UniProt P04062); experiment: GCase enzyme activity assay (4MU-β-Glc, no taurocholate); assay type: biochemical; details: for decrease of inhibitory activity at pH 5.0 compared to pH 5.9: pH 5.0 vs pH 5.9
Experimental: In previous studies, high concentrations of taurocholate (4-10 mM) were used to improve the signal in GCase enzyme activity assays^16,27,28. […] Here we describe our modifications of the substituents on the quinazoline ring.
4-Methylumbelliferyl β-D-glucopyranoside (4MU-β-Glc), 4-methylumbelliferyl α-D-glucopyranoside,4-methylumbelliferyl α-D-galactopyranoside, and buffer components were purchased from Sigma-Aldrich (St. Louis, Mo.). The recombinant wild-type GCase enzyme velaglucerase alfa (Vpriv®, Shire Human Genetic Therapies, Inc.), acid α-glucosidase enzyme alglucosidase alfa (Lumizyme®, Genzyme Corporation), α-galactosidase A enzyme agalsidase beta (Fabrazyme®, Genzyme Corporation) were used in activity assays. […] A solution of 1 M sodium hydroxide and 1 M glycine (pH 10) was used as the stop solution for all three enzyme activity assays.
The compounds in DMSO solution (0.5 μL/well) were transferred to a black 96-well plate (the final titration started from 100 μM, a 12 or 24-point 2-fold dilution series). […] After 5 min of incubation at room temperature, the enzyme reaction was initiated by the addition of blue substrate (4MU-13-Glc) (33 μL/well). The final concentration of the blue substrate was 1.5 mM. The blue substrate reaction was terminated by the addition of 33 μL/well stop solution (1 M NaOH and 1 M glycine mixture, pH 10) after 30 min of incubation at 37° C. […] The selected compounds were further assayed under pH 5.0 and pH 7.0 to evaluate their selectivity under various pH conditions.

[4] = molecular target: T1, wild-type GCase; experiment: Fluorescence thermal shift analysis; assay type: binding; details: for stabilization of GCase (melting point change): pH 5.0, in words
Text: Compounds shown to act as pharmacological chaperones for GCase (or other lysosomal enzymes) also stabilize the enzyme against thermal denaturation. A fluorescent thermal shift assay was developed to evaluate the binding affinity of ligands with protein^30. […] The maximum thermal shift of these compounds corresponded to their inhibitory activity at pH 5.0.
A robotic pipeline in the High Throughput Analysis Laboratory (HTAL) was used for protein ligand screening by fluorescence thermal shift (FTS) analysis. The pipeline used a Mosquito robot (TTP Labtech) for protein dispensing and an Echo 550 (Labcyte) to add compounds. Thermal scanning coupled with fluorescence detection was performed on a real-time PCR machine CFX384 (Bio-Rad Laboratories). The assay was run in 384-well PCR plates, using 10 μL citric acid/K2HPO4 buffer (50 mM citric acid, 150 mM K2HPO4, pH 5.0) per well. The assay concentration for protein was 1 μM and that for Sypro Orange (Invitrogen) was 5×. Protein was premixed with Sypro Orange and dispensed to a plate first, and compounds were added. Final concentrations of compounds ranged from 0.5 to 200 μM. Then the plate was sealed with an optical seal, shaken, and centrifuged. The thermal scan was from 10 to 95° C. with a temperature ramp rate of 1.5° C./min. The fluorescence was recorded every 10 sec. Data analysis and report generation were performed using the in-house software excelFTS.

[5] = molecular target: T2, N370S mutant GCase in patient fibroblasts (Homo sapiens (Human), UniProt P04062, N370S); experiment: GCase protein level in N370S fibroblasts by Western blot; assay type: cell-based; details: 3 days treatment
Experimental: (§2) The N370S fibroblast cell line was obtained from Coriell, GM00372, cultured in DMEM medium (Life Tech) including 1% v/v L-glutamine 200 mM (Life Tech), 1% v/v pen strep (Life Tech), 10% FBS (Life Tech) at 37° C. and 5% CO2 and treated with different compounds at 0.2 μM and 2 μM. After a 3-day treatment, cells were washed with inhibitor free media 3 times and fed with inhibitor free media for 1 day, followed by 1% Triton X-100 lysis buffer to lyse cells. Protein concentrations were measured with a Bradford kit (Thermo), and the GCase activity was determined at pH 5.5.
Proteins were denatured in 20% SDS sample buffer at 100° C. for 10 min; 10% Bis-Tris gel (Life Tech) was used for gels; Trans-Blot Turbo PVDF kit (Bio-Rad) was used for membrane transfer, and Chemidoc MP system (Bio-Rad) was used to analyze the blots.

[6] = molecular target: T2, N370S mutant GCase in patient fibroblasts; experiment: GCase activity in N370S fibroblasts after compound treatment; assay type: cell-based; details: 3-day treatment
Experimental: as §2

[7] = molecular target: T3, GCase (Homo sapiens (Human), UniProt P04062); experiment: Enzyme kinetic assay (resorufin β-D-glucopyranoside); assay type: biochemical; details: substrate 30-150 μM
Experimental: We further tested compounds 4 and 11g by measuring GCase activity at various substrate concentrations (30-150 μM) and in the absence or presence of increasing concentrations of GCase inhibitors.
The substrate resorufin β-D-glucopyranoside was diluted to five concentrations, ranging from 30 to 150 μM. Seven concentrations of inhibitors (between 0.5- and 5-fold of IC50 value) and a DMSO control were added to the enzyme solution. The final enzyme concentration was 10 nM to give a linear reaction over 10 min. Enzyme kinetics were measured by the addition of 66 μL of substrate to a 96-well assay plate, followed by 33 μL of enzyme solution (with or without inhibitor) using a dispense module on a Biotek Synergy H1 multi-mode plate reader. The increase in product fluorescence was measured at 1 min intervals for 10 min in the plate reader. The rate of product formation was calculated by converting the fluorescence units to nanomoles of product per minute using a standard curve of the free fluorophore, resorufin.

[8] = molecular target: T3, GCase; experiment: Fluorescence polarization assay; assay type: binding
Experimental: The fluorescent probe 3 (25 nL/well, 50 nM final concentration) was transferred to a 384-well black plate using a Labcyte Echo 550 Liquid Handler system. The 25 μL/well enzyme dilutions with GCase enzyme activity buffer were added to the plate, which was shaken at room temperature in dark for 20 min. The final titration was 5 nM to 10 μM, 10 concentrations, 2 times dilution. The fluorescence polarization was measured in Molecular Devices Analyst GT with Ex=535 nm and Em=580 nm, G Factor=1.05.

[9] = pH 5.0, mean ± SD, read-out: IC50 pH 5.0
[10] = pH 5.9, mean ± SD, read-out: IC50 pH 5.9
[11] = pH 7.0, mean ± SD, read-out: IC50 pH 7.0

T3 sequence (P04062 40-536): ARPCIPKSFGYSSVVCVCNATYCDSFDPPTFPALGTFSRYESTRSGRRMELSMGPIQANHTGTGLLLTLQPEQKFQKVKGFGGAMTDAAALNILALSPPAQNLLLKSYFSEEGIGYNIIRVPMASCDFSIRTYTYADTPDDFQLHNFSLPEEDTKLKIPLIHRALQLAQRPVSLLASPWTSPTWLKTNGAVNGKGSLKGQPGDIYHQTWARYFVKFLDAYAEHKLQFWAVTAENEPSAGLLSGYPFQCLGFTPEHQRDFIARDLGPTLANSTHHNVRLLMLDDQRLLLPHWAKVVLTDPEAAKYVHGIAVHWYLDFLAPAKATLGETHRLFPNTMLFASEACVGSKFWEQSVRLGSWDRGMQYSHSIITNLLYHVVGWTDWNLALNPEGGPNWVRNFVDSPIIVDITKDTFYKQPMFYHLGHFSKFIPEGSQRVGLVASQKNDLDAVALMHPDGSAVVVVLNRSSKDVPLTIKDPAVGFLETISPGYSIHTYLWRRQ
T1 sequence (P04062 40-536): as above
T2 sequence (P04062 40-536 N409S): as the sequence (P04062 40-536) above, with N370S counted along it
Sequence of α-galactosidase A (GLA) (P06280 32-429): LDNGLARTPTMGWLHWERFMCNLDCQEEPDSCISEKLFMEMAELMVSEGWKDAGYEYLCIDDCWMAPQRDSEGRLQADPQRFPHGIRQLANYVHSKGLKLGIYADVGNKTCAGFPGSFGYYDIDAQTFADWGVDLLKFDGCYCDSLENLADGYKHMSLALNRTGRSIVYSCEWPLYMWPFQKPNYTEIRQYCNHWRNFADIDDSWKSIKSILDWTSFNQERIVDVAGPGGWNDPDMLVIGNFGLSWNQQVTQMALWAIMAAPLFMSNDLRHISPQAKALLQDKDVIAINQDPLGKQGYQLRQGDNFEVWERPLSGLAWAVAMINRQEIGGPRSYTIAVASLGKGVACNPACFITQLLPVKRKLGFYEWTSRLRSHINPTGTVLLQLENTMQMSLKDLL

SMILES | activity of acid α-glucosidase on compound treatment [1] | activity of α-galactosidase A on compound treatment [2] | IC50 [3, 9] [nM] | decrease of inhibitory activity at pH 5.0 compared to pH 5.9 [3] | IC50 [3, 10] [nM] | IC50 [3, 11] [nM] | GCase activity in patient cells [6] | Kd [8] [nM] | stabilization of GCase (melting point change) [4] | concentration of GCase protein [5] | further results
OC[C@H]1CNC[C@@H](O)[C@@H]1O [IFG, Isofagomine, reference compound] | – | – | – | – | – | – | had no effect | – | stabilize wild-type GCase in a dose-dependent manner | did not have an effect | –
CN(C)c1ccc2c(-c3ccc(C(=O)NCCCCCC(=O)Nc4ccc(-c5nc(NC6Cc7ccccc7C6)c6ccccc6n5)cc4)cc3C(=O)O)c3ccc(=[N+](C)C)cc-3oc2c1 [compound 158] | – | – | – | – | – | – | – | 79 | – | – | –
CN(C)c1ccc2c(-c3ccc(C(=O)NCCOCCOCC(=O)Nc4ccc(-c5nc(NC6Cc7ccccc7C6)c6ccccc6n5)cc4)cc3C(=O)O)c3ccc(=[N+](C)C)cc-3oc2c1 [compound 159] | – | – | – | – | – | – | – | 126 | – | – | –
CN(C)c1ccc2c(-c3ccc(C(=O)NCCOCCOCCOCCOCCC(=O)NCCCCCC(=O)Nc4ccc(-c5nc(NC6Cc7ccccc7C6)c6ccccc6n5)cc4)cc3C(=O)O)c3ccc(=[N+](C)C)cc-3oc2c1 [compound 160] | – | – | – | – | – | – | – | 7.1 | – | – | –

More lines, main results first:

activity of acid α-glucosidase on compound treatment [1] | activity of α-galactosidase A on compound treatment [2] | IC50 [3, 9] [nM] | decrease of inhibitory activity at pH 5.0 compared to pH 5.9 [3] | IC50 [3, 10] [nM] | IC50 [3, 11] [nM] | GCase activity in patient cells [6] | Kd [8] [nM] | SMILES | stabilization of GCase (melting point change) [4] | concentration of GCase protein [5] | further results
not significantly changed | not significantly changed | 13.9 ± 1.9 | only dropped slightly | 8.2 ± 1 | 12.9 ± 2 | – | – | c1csc(-c2nc(NC3Cc4ccccc4C3)c3ccccc3n2)c1 [Compound 11f, N-(2,3-dihydro-1H-inden-2-yl)-2-(thiophen-2-yl)quinazolin-4-amine] | stabilize wild-type GCase in a dose-dependent manner; also recorded: increased the GCase melting point in a dose-dependent manner | significantly increased the concentration of GCase | –
not significantly changed | not significantly changed | 8.9 ± 1.3 | only dropped slightly | 5.2 ± 0.6 | 6.6 ± 1 | increased GCase activity | – | c1ccc2c(c1)CC(Nc1nc(-c3ccsc3)nc3ccccc13)C2 [Compound 11g, N-(2,3-dihydro-1H-inden-2-yl)-2-(thiophen-3-yl)quinazolin-4-amine] | stabilize wild-type GCase in a dose-dependent manner; also recorded: increased the GCase melting point in a dose-dependent manner | significantly increased the concentration of GCase | type of inhibition (Lineweaver-Burk) [7]: linear mixed inhibition; maximum thermal shift ([4]; pH 5.0): around 11 °C
